Assay results: the supplement of paper PMC11061612

Tests used:
Assay in all cases: combination Emax (second highest fraction inhibited in the dose matrix, 72 h); higher = more inhibition; extreme values may be limits of the assay
[1] = system: 8505C (Thyroid Gland Carcinoma)
Summary of the method: (§1)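 Cell lines grown in DMEM/F12 or RPMI with 10% FBS were plated in 1536-well plates and held 24 hours at 37°C, 5% CO2 before 72 hours of exposure to two-drug dose matrices, with DMSO typically at 0.2%. CellTiter-Glo 2.0 luminescence gave viability, which was converted to inhibition. Vehicle wells were set to 0 and blank wells to 1. Combination Emax is the second-highest inhibition in the matrix, and Bliss excess is the observed combination effect minus the expected EA + EB − EA·EB, where EA and EB are the single-agent effects.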

[2] = system: COR-L279 (Small Cell Lung Carcinoma)
Summary of the method: as §1

[3] = system: CW-2 (Colorectal Carcinoma)
Summary of the method: as §1

[4] = system: DAN-G (Pancreatic Carcinoma)
Summary of the method: as §1

G-361 (Melanoma) = system: G-361 (Melanoma)
Summary of the method: as §1

[5] = system: KU812 (Chronic Myelogenous Leukemia)
Summary of the method: as §1

[6] = system: KY821 (Acute Myeloid Leukemia)
Summary of the method: as §1

[7] = system: MN-60 (B-Lymphoblastic Leukemia)
Summary of the method: as §1

[8] = system: MOG-G-CCM (Low Grade Glioma)
Summary of the method: as §1

[9] = system: NCCIT (Other Solid Carcinomas)
Summary of the method: as §1

[10] = system: NCI-H3122 (Lung Adenocarcinoma)
Summary of the method: as §1

[11] = system: NCI-H520 (Squamous Cell Lung Carcinoma)
Summary of the method: as §1

[12] = system: NCI-H526 (Small Cell Lung Carcinoma)
Summary of the method: as §1

[13] = system: NCI-H929 (Plasma Cell Myeloma)
Summary of the method: as §1

[14] = system: PC-3 (Prostate Carcinoma)
Summary of the method: as §1

RD (Rhabdomyosarcoma) = system: RD (Rhabdomyosarcoma)
Summary of the method: as §1

[15] = system: SNU-398 (Hepatocellular Carcinoma)
Summary of the method: as §1

[16] = system: SU-DHL-5 (B-Cell Non-Hodgkin's Lymphoma)
Summary of the method: as §1

[17] = system: SUP-B15 (B-Lymphoblastic Leukemia)
Summary of the method: as §1

[18] = system: T-T (Esophageal Squamous Cell Carcinoma)
Summary of the method: as §1

| SMILES | combination Emax [1] | combination Emax [2] | combination Emax [3] | combination Emax [4] | combination Emax (G-361 (Melanoma)) | combination Emax [5] | combination Emax [6] | combination Emax [7] | combination Emax [8] | combination Emax [9] | combination Emax [10] | combination Emax [11] | combination Emax [12] | combination Emax [13] | combination Emax [14] | combination Emax (RD (Rhabdomyosarcoma)) | combination Emax [15] | combination Emax [16] | combination Emax [17] | combination Emax [18] |
| --- | --- | --- | --- | --- | --- | --- | --- | --- | --- | --- | --- | --- | --- | --- | --- | --- | --- | --- | --- | --- |
| Cc1c2c(nn1C)CSCc1cc(n(C)n1)CSc1cc(c3ccccc3c1)OCCCc1c(C(=O)O)n(C)c3c-2c(Cl)ccc13 [AZD5991] + Cc1cc2ncnn2cc1Nc1ncc2c(n1)n(C1CCOCC1)c(=O)n2C [AZD7648] (first compound max 1 µM, 7x7, partner max 10 µM) | 0.193 | 0.468 | 0.223 | 0.483 | 0.956 | 0.848 | 1 | 0.15 | 0.302 | 0.619 | 0.442 | 0.567 | 0.323 | 1 | 0.305 | 0.521 | 1 | 1 | 1 | 0.926 |
| COc1cccc2c1C(=O)c1c(O)c3c(c(O)c1C2=O)C[C@@](O)(C(=O)CO)C[C@@H]3O[C@H]1C[C@H](N)[C@H](O)[C@H](C)O1 [Doxorubicin] + Cc1cc2ncnn2cc1Nc1ncc2c(n1)n(C1CCOCC1)c(=O)n2C [AZD7648] (first compound max 1 µM, 7x7, partner max 10 µM) | 0.846 | 1 | 0.231 | 0.735 | 0.926 | 0.822 | 0.983 | 0.833 | 0.663 | 0.825 | 0.921 | 0.771 | 0.988 | 0.994 | 0.431 | 0.493 | 0.595 | 1 | 0.987 | 0.624 |
| C[C@@H]1COCCN1c1cc(C2([S@](C)(=N)=O)CC2)nc(-c2ccnc3[nH]ccc23)n1 [AZD6738] + O=C(c1cc(Cc2n[nH]c(=O)c3ccccc23)ccc1F)N1CCN(C(=O)C2CC2)CC1 [Olaparib] (first compound max 10 µM, 7x7, partner max 10 µM) | 0.356 | 0.927 | 0.473 | 0.643 | 0.456 | 0.806 | 0.97 | 0.528 | 0.42 | 0.609 | 0.726 | 0.752 | 0.752 | 0.668 | 0.514 | 0.332 | 0.354 | 1 | 0.969 | 0.448 |
| Cc1nc(Nc2ncc(C(=O)Nc3c(C)cccc3Cl)s2)cc(N2CCN(CCO)CC2)n1 [Dasatinib] + CC(=O)Nc1cccc(-n2c(=O)n(C3CC3)c(=O)c3c(Nc4ccc(I)cc4F)n(C)c(=O)c(C)c32)c1 [Trametinib] (first compound max 2 µM, 7x7, partner max 1 µM) | 0.628 | 0.254 | 0.551 | 0.962 | 0.753 | 1 | 0.691 | 0.27 | 0.741 | 0.366 | 0.705 | 0.233 | 0.0355 | 0.992 | 0.243 | 0.769 | 0.501 | 1 | 0.952 | 0.5 |
| CC(=O)c1c(C)c2cnc(Nc3ccc(N4CCNCC4)cn3)nc2n(C2CCCC2)c1=O [Palbociclib] + Cn1cnc2c(F)c(Nc3ccc(Br)cc3Cl)c(C(=O)NOCCO)cc21 [Selumetinib] (first compound max 10 µM, 7x7, partner max 10 µM) | 0.364 | 0.37 | 0.451 | 0.43 | 0.721 | 0.904 | 0.861 | 0.402 | 0.157 | 0.276 | 0.701 | 0.679 | 0.0977 | 0.79 | 0.145 | 0.569 | 0.376 | 1 | 0.661 | 0.46 |
| COc1cccc(OCCCN)c1-c1cc(Nc2cnc(C#N)cn2)n[nH]1 [Prexasertib] + C[C@@H]1COCCN1C2=NC(=NC(=C2)C3(CC3)[S@](=N)(=O)C)C4=C5C=CNC5=NC=C4 [AZD6738] (first compound max 1 µM, 7x7, partner max 10 µM) | 0.551 | 0.835 | 0.614 | 0.769 | 0.655 | 0.756 | 1 | 0.562 | 0.644 | 0.797 | 0.794 | 0.775 | 0.92 | 0.741 | 0.431 | 0.539 | 0.437 | 1 | 0.962 | 0.742 |
| NC1(C(=O)N[C@@H](CCO)c2ccc(Cl)cc2)CCN(c2ncnc3[nH]ccc23)CC1 [Capivasertib] + Cn1cnc2c(F)c(Nc3ccc(Br)cc3Cl)c(C(=O)NOCCO)cc21 [Selumetinib] (first compound max 10 µM, 7x7, partner max 10 µM) | 0.5 | 0.551 | 0.482 | 0.65 | 0.83 | 0.983 | 0.891 | 0.188 | 0.548 | 0.55 | 0.882 | 0.548 | 0.249 | 1 | 0.258 | 0.633 | 0.472 | 1 | 0.805 | 0.429 |
| Cc1c2c(nn1C)CSCc1cc(n(C)n1)CSc1cc(c3ccccc3c1)OCCCc1c(C(=O)O)n(C)c3c-2c(Cl)ccc13 [AZD5991] + CCN(CCO)CCCOc1ccc2c(Nc3cc(CC(=O)Nc4cccc(F)c4)[nH]n3)ncnc2c1 [AZD2811] (first compound max 1 µM, 7x7, partner max 1 µM) | 0.866 | 0.787 | 0.158 | 0.702 | 0.964 | 0.851 | 1 | 0.206 | 0.41 | 0.674 | 0.918 | 0.599 | 0.8 | 1 | 0.305 | 0.546 | 0.991 | 1 | 1 | 0.95 |
| NC1(C(=O)N[C@@H](CCO)c2ccc(Cl)cc2)CCN(c2ncnc3[nH]ccc23)CC1 [Capivasertib] + C[C@@H]1COCCN1C2=NC(=NC(=C2)C3(CC3)[S@](=N)(=O)C)C4=C5C=CNC5=NC=C4 [AZD6738] (first compound max 10 µM, 7x7, partner max 10 µM) | 0.475 | 0.853 | 0.542 | 0.721 | 0.614 | 0.851 | 1 | 0.715 | 0.787 | 0.66 | 0.727 | 0.711 | 0.779 | 1 | 0.593 | 0.402 | 0.752 | 1 | 0.986 | 0.389 |
| NC1(C(=O)N[C@@H](CCO)c2ccc(Cl)cc2)CCN(c2ncnc3[nH]ccc23)CC1 [Capivasertib] + CCN(CCO)CCCOc1ccc2c(Nc3cc(CC(=O)Nc4cccc(F)c4)[nH]n3)ncnc2c1 [AZD2811] (first compound max 10 µM, 7x7, partner max 1 µM) | 0.304 | 0.935 | 0.288 | 0.43 | 0.46 | 0.727 | 0.613 | 0.336 | 0.67 | 0.624 | 0.62 | 0.688 | 0.588 | 1 | 0.401 | 0.349 | 0.542 | 1 | 0.929 | 0.331 |
| Cc1cc2ncnn2cc1Nc1ncc2c(n1)n(C1CCOCC1)c(=O)n2C [AZD7648] + O=C(c1cc(Cc2n[nH]c(=O)c3ccccc23)ccc1F)N1CCN(C(=O)C2CC2)CC1 [Olaparib] (first compound max 10 µM, 7x7, partner max 10 µM) | 0.229 | 0.858 | 0.0683 | 0.531 | 0.117 | 0.393 | 0.355 | 0.175 | 0.236 | 0.192 | 0.281 | 0.485 | 0.473 | 0.761 | 0.265 | 0.161 | 0.134 | 0.96 | 0.917 | 0.0568 |
| NC1(C(=O)N[C@@H](CCO)c2ccc(Cl)cc2)CCN(c2ncnc3[nH]ccc23)CC1 [Capivasertib] + CC(=O)c1c(C)c2cnc(Nc3ccc(N4CCNCC4)cn3)nc2n(C2CCCC2)c1=O [Palbociclib] (first compound max 10 µM, 7x7, partner max 10 µM) | 0.187 | 0.688 | 0.445 | 0.355 | 0.443 | 0.552 | 0.757 | 0.583 | 0.501 | 0.537 | 0.701 | 0.717 | 0.15 | 1 | 0.376 | 0.463 | 0.472 | 1 | 0.94 | 0.344 |
| COc1nnc2ccc(N3CCC(c4ccc(OCCN5CCN(C)C(=O)[C@H]5C)cc4)CC3)nn12 [AZD5153] + Cn1cnc2c(F)c(Nc3ccc(Br)cc3Cl)c(C(=O)NOCCO)cc21 [Selumetinib] (first compound max 1 µM, 7x7, partner max 10 µM) | 0.593 | 0.682 | 0.565 | 0.527 | 0.766 | 0.994 | 1 | 0.78 | 0.548 | 0.786 | 0.68 | 0.61 | 0.941 | 1 | 0.299 | 0.77 | 0.556 | 1 | 1 | 0.633 |
